Assay results reported in paper PMC4243055 (Cell, 2014).

Biological target: T1, Cdc25 phosphatase (CnCdc25) (Cryptococcus neoformans, UniProt J9VTJ5)
T1 sequence (J9VTJ5 442-662): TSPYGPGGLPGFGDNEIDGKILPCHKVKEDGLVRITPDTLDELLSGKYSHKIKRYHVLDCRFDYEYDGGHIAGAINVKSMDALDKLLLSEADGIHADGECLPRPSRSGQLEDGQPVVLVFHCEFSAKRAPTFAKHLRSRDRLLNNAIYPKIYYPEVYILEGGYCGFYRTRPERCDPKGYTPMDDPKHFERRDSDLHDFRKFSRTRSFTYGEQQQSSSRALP
Experiment: in vitro phosphatase assay with OMFP substrate, Michaelis-Menten kinetics
Format: biochemical

Structure (SMILES): O=C1C(NCCN2CCOCC2)=C(Cl)C(=O)c2ncccc21 [NSC 663284, 7-Chloro-6-(2-morpholin-4-ylethylamino)-quinoline-5,8-dione]
- Ki: ~250 µM
